Where “and” joins values, the source holds several entries; their conditions need not be identical. Equal entries are not always repeated. Structures can show the parent of a compound that is named as a salt. Where two headings read alike, the source gives them in different places. A value given as a limit tells only on which side of the number the result lay.

In test [1] the test system is U937 cells. Kind of test: U937 Cell TNFα Release Assay. It counts as cell-based, human. The settings on record: mixture of stereoisomers implied unless otherwise noted.
In test [2] the target is MK-2 (Homo sapiens, UniProt P49137). Kind of test: Determination of MK-2 IC50 (phosphorylation of HSP-peptide, anion exchange resin capture assay). It counts as biochemical. The settings on record: additional values are replicate IC50 experiments; mixture of stereoisomers implied unless otherwise noted; read-out: MK-2 Avg. IC50.
Where [3] appears, read: Homo sapiens, U-937, 4 h, read-out: TNF Release Assay Avg. IC50, LPS-stimulated differentiated U937 cells, TNFα by ELISA.
[4] abbreviates: Homo sapiens, U-937, read-out: TNF Release Assay Avg. IC50, LPS-stimulated differentiated U937 cells, TNFα by ELISA.
Where [5] appears, read: read-out: TNF Release Assay Avg. IC50, LPS-stimulated differentiated U937 cells, TNFα by ELISA, hydrochloride.
Where [6] appears, read: Homo sapiens, U-937, LPS-stimulated differentiated U937 cells, TNFα by ELISA, read-out: TNF Release Assay Avg. IC50.
Where [7] appears, read: read-out: TNF Release Assay Avg. IC50, LPS-stimulated differentiated U937 cells, TNFα by ELISA, trifluoroacetate.

Chain of MK-2 (P49137 whole entry, species assumed): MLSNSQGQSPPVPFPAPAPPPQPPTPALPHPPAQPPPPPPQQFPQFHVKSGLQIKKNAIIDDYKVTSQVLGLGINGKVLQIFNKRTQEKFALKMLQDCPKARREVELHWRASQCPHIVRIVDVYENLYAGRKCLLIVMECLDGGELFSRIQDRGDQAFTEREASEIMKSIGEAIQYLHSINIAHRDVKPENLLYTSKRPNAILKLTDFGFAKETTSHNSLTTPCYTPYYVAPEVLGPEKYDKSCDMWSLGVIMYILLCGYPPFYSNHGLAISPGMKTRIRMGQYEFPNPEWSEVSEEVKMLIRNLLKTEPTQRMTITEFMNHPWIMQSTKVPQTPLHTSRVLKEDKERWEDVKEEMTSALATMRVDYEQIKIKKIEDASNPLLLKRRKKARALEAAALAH

Usually IC50 stands for the concentration at which inhibition is half-maximal. Regarding `CCC1CNC(C(=O)O)c2[nH]c3ccc(OC)cc3c21` (stereo not drawn) [Example 21, 4-ethyl-6-methoxy-2,3,4,9-tetrahydro-1H-beta-carboline-1-carboxylic acid hydrochloride], the IC50 in test [1] (setting [3]) is more than 100 µM. `C=CCOC(=O)C1c2[nH]c3ccc(OC)cc3c2C2CCN1C2` (stereo not shown) [Example 28, allyl 7-methoxy-3,4,5,10-tetrahydro-1H-2,5-methanoazepino[3,4-b]indole-1-carboxylate hydrochloride]: the 50% inhibitory concentration (IC50) in test [1] (setting [4]) stood at 14.5 µM. As to `COCCOC(=O)C1c2[nH]c3ccc(OC)cc3c2C2CCN1C2` (stereo not shown) [Example 35, hydrochloride], the IC50 in test [1] (setting [5]) is 93.2 µM. Turning to `O=C(O)C1c2[nH]c3ccc(O)cc3c2C2CCN1C2` (stereo not shown) [Example 2, 7-hydroxy-3,4,5,10-tetrahydro-1H-2,5-methanoazepino[3,4-b]indole-1-carboxylic acid hydrochloride], the IC50 in test [1] (Homo sapiens, U-937, 4 h, LPS-stimulated differentiated U937 cells, TNFα by ELISA, read-out: TNF Release Assay Avg. IC50) was found to be 42.6 µM. Turning to `COc1ccc2[nH]c3c(c2c1)C1CCN(C1)C3C(=O)NCc1ccccc1` (stereo not shown) [Example 243, N-benzyl-7-methoxy-3,4,5,10-tetrahydro-1H-2,5-methanoazepino[3,4-b]indole-1-carboxamide hydrochloride], the IC50 in test [1] (setting [4]) was more than 100 µM. On to `O=C(OCc1ccccc1)C1c2[nH]c3ccc(O)cc3c2C2CCN1C2` (stereo not shown) [Example 63, benzyl 7-hydroxy-3,4,5,10-tetrahydro-1H-2,5-methanoazepino[3,4-b]indole-1-carboxylate hydrochloride], for which the IC50 in test [1] (setting [6]) came to 35.9 µM.

Regarding `COc1ccc2[nH]c3c(c2c1)C1CCN(C1)C3C(=O)OC1C(C)(C)CCCC1(C)C` (stereo not shown) [Example 152, 2,2,6,6-tetramethylcyclohexyl 7-methoxy-3,4,5,10-tetrahydro-1H-2,5-methanoazepino[3,4-b]indole-1-carboxylate trifluoroacetate], in test [1] (setting [4]), the IC50 came to 21.8 µM.

With `COc1ccc2[nH]c3c(c2c1)C1CCN(C1)C3C(=O)OCCSC` (stereo not shown) [Example 32, hydrochloride], the IC50 in test [1] (setting [4]) is 29.9 µM. Still for that read-out and setting: the result for `CCOC(=O)C1c2[nH]c3ccc(OC)cc3c2C2CCN1C2` (stereo not shown) [Example 92, ethyl 7-methoxy-3,4,5,10-tetrahydro-1H-2,5-methanoazepino[3,4-b]indole-1-carboxylate trifluoroacetate] reads 5.61 µM.

Consider `COc1ccc2[nH]c3c(c2c1)CC(CO)NC3C(=O)O` (stereo not drawn) [Example 24, 3-(hydroxymethyl)-6-methoxy-2,3,4,9-tetrahydro-1H-beta-carboline-1-carboxylic acid], for which, in test [1] (setting [3]), the IC50 is more than 100 µM. For `COC(=O)C1c2[nH]c3ccc(OCc4ccccc4)cc3c2C2CCN1C2` (stereo not shown) [Example 91, methyl 7-(benzyloxy)-3,4,5,10-tetrahydro-1H-2,5-methanoazepino[3,4-b]indole-1-carboxylate compound with trifluoroacetic acid (1:1)], in test [1] (setting [4]), the IC50 turned out to be 24 µM.

Regarding `COc1ccc2[nH]c3c(c2c1)C(Cc1ccccc1)CNC3C(=O)O` (stereo not drawn) [Example 71, 4-benzyl-6-methoxy-2,3,4,9-tetrahydro-1H-beta-carboline-1-carboxylic acid], in test [1] (setting [3]), the half-maximal inhibitory concentration (IC50) is 54 µM.

Consider `COC(=O)C1NCCc2c1[nH]c1ccc(OC)cc21` (stereo not drawn) [Example 106, methyl 6-methoxy-2,3,4,9-tetrahydro-1H-beta-carboline-1-carboxylate hydrochloride], for which the IC50 in test [1] (setting [3]) is 26.1 µM.

Consider `CCCCCCOC(=O)C1c2[nH]c3ccc(OC)cc3c2C2CCN1C2` (stereo not shown) [Example 93, hydrochloride], for which the IC50 in test [1] (setting [4]) was 9.65 µM. For the compound `COC(=O)C1c2[nH]c3ccc(OC)cc3c2CCN1C` (stereo not drawn) [Example 149, methyl 6-methoxy-2-methyl-2,3,4,9-tetrahydro-1H-beta-carboline-1-carboxylate], the IC50 in test [1] (setting [3]) was 8.25 µM. Same read-out and setting: the result for `COc1ccc2[nH]c3c(c2c1)CCN[C@@H]3C(=O)O` [Example 67, (1S)-6-methoxy-2,3,4,9-tetrahydro-1H-beta-carboline-1-carboxylic acid] reads more than 100 µM. Turning to `COC(=O)C1c2[nH]c3ccc(O)cc3c2C2CCN1C2` (stereo not shown) [Example 40, methyl 7-hydroxy-3,4,5,10-tetrahydro-1H-2,5-methanoazepino[3,4-b]indole-1-carboxylate hydrochloride], the IC50 in test [1] (setting [4]) came out at 25.5 µM. As for `NC(=O)c1ccc2[nH]c3c(c2c1)CCNC3C(=O)O` (stereo not drawn) [Example 88, 6-(aminocarbonyl)-2,3,4,9-tetrahydro-1H-beta-carboline-1-carboxylic acid trifluoroacetate hydrate], in test [1] (setting [3]), the 50% inhibitory concentration (IC50) is more than 100 µM. In the case of `CCCOC(=O)C1c2[nH]c3ccc(OC)cc3c2C2CCN1C2` (stereo not shown) [Example 90, propyl 7-methoxy-3,4,5,10-tetrahydro-1H-2,5-methanoazepino[3,4-b]indole-1-carboxylate hydrochloride], the IC50 in test [1] (setting [5]) was 47.9 µM. In the case of `O=C(O)C1NCCc2c1[nH]c1ccc(OCc3ccccc3)cc21` (stereo not drawn) [Example 64, 6-(benzyloxy)-2,3,4,9-tetrahydro-1H-beta-carboline-1-carboxylic acid hydrochloride], the IC50 in test [1] (setting [3]) amounted to 85.1 µM. With `COc1ccc2[nH]c3c(c2c1)C1CCN(C1)C3C(=O)OCC(C)(C)C` (stereo not shown) [Example 84, hydrochloride], the IC50 in test [1] (setting [4]) is 41 µM.

Take `COc1ccc2[nH]c3c(c2c1)C1CCN(C1)C3C(=O)OCCF` (stereo not shown) [Example 26, trifluoroacetate]: the IC50 in test [1] (setting [4]) worked out at 2.04 µM. For `CCCOC(=O)C1c2[nH]c3ccc(OC)cc3c2C2CCN1C2` (stereo not shown) [Example 61, propyl 7-methoxy-3,4,5,10-tetrahydro-1H-2,5-methanoazepino[3,4-b]indole-1-carboxylate trifluoroacetate], the IC50 in test [1] (setting [7]) was found to be 0.879 µM. With `COc1ccc2[nH]c3c(c2c1)CC(CO)NC3=O` (stereo not drawn) [Example 37, 3-(hydroxymethyl)-6-methoxy-2,3,4,9-tetrahydro-1H-beta-carbolin-1-one], the IC50 in test [1] (setting [6]) was more than 100 µM. For `COc1ccc2[nH]c3c(c2c1)C1CCN(C1)C3C(=O)OCc1ccccc1` (stereo not shown) [Example 31, benzyl 7-methoxy-3,4,5,10-tetrahydro-1H-2,5-methanoazepino[3,4-b]indole-1-carboxylate trifluoroacetate], in test [1] (setting [7]), the IC50 came out at 46.2 µM. Turning to `COc1cccc2[nH]c3c(c12)CCNC3C(=O)O` (stereo not drawn) [Example 103, 5-methoxy-2,3,4,9-tetrahydro-1H-beta-carboline-1-carboxylic acid hydrochloride], in test [1] (setting [3]), the half-inhibitory concentration (IC50) amounted to 92.6 µM. With `COc1ccc2[nH]c3c(c2c1)CC(CCCO)NC3=O` (stereo not drawn) [Example 81, 3-(3-hydroxypropyl)-6-methoxy-2,3,4,9-tetrahydro-1H-beta-carbolin-1-one], the IC50 in test [2] was found to be 20.4 µM. Still for that read-out and setting: the figure for `CN1CCc2c([nH]c3ccc(OCc4ccccc4)cc23)C1C(=O)O` (stereo not drawn) [Example 36, sodium 6-(benzyloxy)-2-methyl-2,3,4,9-tetrahydro-1H-beta-carboline-1-carboxylate] is 4.83 µM and 4.96 µM; for `COc1cc2[nH]c3c(c2cc1OC)CCNC3C(=O)O` (stereo not drawn) [Example 201, 6,7-dimethoxy-2,3,4,9-tetrahydro-1H-beta-carboline-1-carboxylic acid trifluoroacetate] it is more than 200 µM. Same read-out and setting: the figure for `COc1ccc2[nH]c3c(c2c1)CC(CC#N)NC3=O` (stereo not drawn) [Example 116, (6-methoxy-1-oxo-2,3,4,9-tetrahydro-1H-beta-carbolin-3-yl)acetontrile] is 68.7 µM; for `O=C1NCCc2c1[nH]c1ccc([N+](=O)[O-])cc21` [Example 253, 6-nitro-2,3,4,9-tetrahydro-1H-beta-carbolin-1-one] it is more than 200 µM; for `Cc1cccc2c3c([nH]c12)C(=O)NCC3` [Example 258, 1H-Pyrido[3,4-b]indol-1-one,2,3,4,9-tetrahydro-8-methyl- or 8-methyl-2,3,4,9-tetrahydro-1H-beta-carbolin-1-one] it is more than 200 µM. Still for that read-out and setting: the result for `O/N=C1\CCCc2c1[nH]c1ccccc21` [Example 109, 2,3,4,9-tetrahydro-1H-carbazol-1-one oxime] reads 49.9 µM; that for `COc1ccc2[nH]c3c(c2c1)C(Cc1cccc(C(F)(F)F)c1)CNC3C(=O)O` (stereo not drawn) [Example 118, 6-methoxy-4-[3-(trifluoromethyl)benzyl]-2,3,4,9-tetrahydro-1H-beta-carboline-1-carboxylic acid], 70.9 µM. As to `O=C(O)C1NCCc2c1[nH]c1ccc(OCCc3ccccc3)cc21` (stereo not drawn) [Example 87, 6-(2-phenylethoxy)-2,3,4,9-tetrahydro-1H-beta-carboline-1-carboxylic acid hydrochloride], in test [2], the IC50 came out at 27.9 µM. Still for that read-out and setting: the figure for `COc1ccc2[nH]c3c(c2c1)CCN(C(C)C)C3C(=O)O` (stereo not drawn) [Example 157, sodium 2-isopropyl-6-methoxy-2,3,4,9-tetrahydro-1H-beta-carboline-1-carboxylate] is 170 µM.

Turning to `COc1ccc2[nH]c3c(=O)[nH]ccc3c2c1` [Example 95, 6-methoxy-2,9-dihydro-1H-beta-carbolin-1-one], in test [2], the IC50 amounted to 31.8 µM. Still for that read-out and setting: the result for `COC(=O)CCC1Cc2c([nH]c3ccc(OC)cc23)C(=O)N1` (stereo not drawn) [Example 147, methyl 3-(6-methoxy-1-oxo-2,3,4,9-tetrahydro-1H-beta-carbolin-3-yl)propanoate] reads 136 µM; that for `COc1ccc2[nH]c3c(c2c1)CCNC3CC#N` (stereo not drawn) [Example 231, (6-methoxy-2,3,4,9-tetrahydro-1H-beta-carbolin-1-yl)acetonitrile], more than 200 µM; that for `COc1ccc2[nH]c3c(c2c1)CCN(C(=O)OCc1ccccc1)C3C(=O)O` (stereo not drawn) [Example 219, 2-[(benzyloxy)carbonyl]-6-methoxy-2,3,4,9-tetrahydro-1H-beta-carboline-1-carboxylic acid], more than 200 µM.

Source of the values: patent publication US20050137220A1 (Pharmacia Corporation, priority 2003, published 2005).
